# Data from patent EP0374249A1, “METHOD OF STERILIZING PLANT POLLEN” (VSESOJUZNY NAUCHNO-ISSLEDOVATELSKY INST. SELSKOKHOZYAISTV. …, priority 1988, dated 1989).
# What was measured:
# [1] = system: diploidem Roggen Sorte Chulpan; experiment: Field test of pollen sterilisation, diploid rye Chulpan; format: in vivo; settings: 1% aqueous emulsion, 8 kg/ha; for Prozentsatz der Sterilität / Anzahl von Körnern der Ähre bei freier Bestäubung / Anzahl von Körnern der Ähre im Isolator: period V of organogenesis; for Anzahl von Körnern der Ähre bei freier Bestäubung: free pollination; for Anzahl von Körnern der Ähre im Isolator: isolated ears; for Prozentsatz des Ansetzens von Körnern bei freier Bestäubung: period V, non-isolated control ears = 100%
# [2] = system: tetraploidem Roggen Sorte Belta; experiment: Field test of pollen sterilisation, tetraploid rye Belta; format: in vivo; settings: 1% aqueous emulsion, 10 kg/ha; for Prozentsatz der Sterilität / Anzahl von Körnern der Ähre bei freier Bestäubung / Anzahl von Körnern der Ähre im Isolator: period V of organogenesis; for Anzahl von Körnern der Ähre bei freier Bestäubung: free pollination; for Anzahl von Körnern der Ähre im Isolator: isolated ears; for Prozentsatz des Ansetzens von Körnern bei freier Bestäubung: period V, non-isolated control ears = 100%
# Description: (§1) Die gametozide Aktivität der erfindungsgemässen Sterilisationsmittel war im Feldversuch in verschiedenen Bodenklimatischen Zonen mit Teilstücken von 10 m^2 Grösse in drei- bis viermaliger Wiederholung nachgewiesen. Jedes Sterilisationsmittel wurde mindestens 5 Jahre lang geprüft.
# (§2) Die Entwicklung der Perioden der Organogenese wird zytologischüberwacht. Die Behandlung von Pflanzen mit dem Sterilisationsmittel erfolgt am Anfang der fünften Periode der Organogenese nach Kupermann.
# (§3) Mit dem Ahrenschiebe verwirklicht man die Isolierung von Hauptähren und anderen Stockwerken in Pergamentbeuteln. Bei Weizen und Tritikale werden Einzelisolatoren verwendet. Bei Roggen schliesst man je Ähre 5 bis 7 verschiedene nebeneinander befindliche Pflanzen unter einen gemeinsamen Isolator ein. Bei Hirse wird jede Rispe getrennt isoliert. Der Sterilitätsprozentsatz (X) für Weizen, Roggen, Tritikale und Hirse wird nach folgender Formel [formula] ermittelt.
# (§4) Die Kornzahl in nicht isolierten ähren von Kontrollpflanzen wird bedingt für 100% Ansetzen bei freier Bestäubung angenommen.
# (§5) Um zuverlässige Angaben zu erhalten, verwendet man 20 bis 25 Isolatoren jeder Wiederholung für Weisen und Tritikale, 10 bis 15 Gruppenisolatoren jeder Wiederholung für Roggen und Hirse.
# Pflanzen von tetraploidem Roggen Sorte Belta werden in der V. Periode der Organogenese (nach Kupermann) mit einer 1%igen wässrigen Emulsion von N-(2-Dimethylamino- .äthyl)maleaminsäure, N-(3-Dimethylaminopropyl)maleaminsäure, N-Äthylmaleaminsäure, N-(2-Hydroxyäthyl)maleaminsäure bzw. Karbamoylmaleaminsäure behandelt. Die Emulsion enthält 0,5 Masse% Kalziumalkylbenzolsulfonat mit 12 bis 14 Kohlenstoffatomen und 0,01 Masso% Tetrahydrofuran. Der Verbrauch an Präparat beträgt 10 kg/ha. Die Prüfergebnisse sind in der Tabelle 5 dargestellt. […] Periode der Organogenese erhalten.
# [3] = system: diploidem Roggen Sorte Talovskaya 12; experiment: Field test of pollen sterilisation, diploid rye Talovskaya 12; format: in vivo; settings: 1% aqueous emulsion, 6 kg/ha; for Prozentsatz der Sterilität / Anzahl von Körnern der Ähre bei freier Bestäubung / Anzahl von Körnern der Ähre im Isolator: period V of organogenesis; for Anzahl von Körnern der Ähre bei freier Bestäubung: free pollination; for Anzahl von Körnern der Ähre im Isolator: isolated ears
# Description: Mit dem Ahrenschiebe verwirklicht man die Isolierung von Hauptähren und anderen Stockwerken in Pergamentbeuteln. […] Bei Roggen schliesst man je Ähre 5 bis 7 verschiedene nebeneinander befindliche Pflanzen unter einen gemeinsamen Isolator ein. […] Der Sterilitätsprozentsatz (X) für Weizen, Roggen, Tritikale und Hirse wird nach folgender Formel [formula] ermittelt.
# Pflanzen von diploidem Roggen Sorte Talovskaya 12 werden in der V. Periode der Organogenese (nach Kupermann) mit einer 1%igen wässrigen Emulsion von N-(2-Di- methylaminoäthyl)-maleaminsäure, N-(3-Dimethylaminopropyl)-maleaminsäure, N-Äthylmaleaminsäure, N-(2-Hydroxyäthyl)maleaminsäure, N-Karbamoylmaleaminsäure behandelt. Die Emulsion enthält 0,01 Masse% Dodezylsulfat und 0,1 Masse% Kalziumalkylbenzolsulfonat mit 12 bis _14 Kohlenstoffatomen. Der Verbrauch an Präparat beträgt 6 kg/ha. Als Kontrolle dienen Pflanzen, behandelt mit einem Verdünner ohne Sterilisationsmittel.
# [4] = system: Hirse Sorte Mironovskoe 94; experiment: Field test of pollen sterilisation, millet Mironovskoe 94; format: in vivo; settings: 1% aqueous emulsion, 8 kg/ha; for Prozentsatz der Sterilität / Anzahl von Körnern der Rispe bei freier Bestäubung / Anzahl von Körnern der Rispe im Isolator: period V of organogenesis; for Anzahl von Körnern der Rispe bei freier Bestäubung: free pollination; for Anzahl von Körnern der Rispe im Isolator: isolated panicles; for Prozentsatz des Ansetzens von Körnern bei freier Bestäubung: period V, non-isolated control = 100%
# Description: as §1, §2, §3, §4, §5
# Pflanzen der Hirse Sorte Mironovskoe 94 werden in der V. Periode der Organogenese (nach Kupermann) mit einer 1%igen wässrigen Emulsion von N-(2-Dimethylaminoäthyl)maleaminsäure, N-(3-Dimethylaminopropyl)maleaminsäure, N-Äthylmaleaminsäure, N-(2-Hydroxyäthyl)maleaminsäure, N-Karbamoylmaleaminsäure behandelt. Die Emulsion enthält 0,01 Masse% Dimethylaulfoxid und 0,1 Masse% Kalziumalkylbenzolsulfonat mit 12 bis 14 Kohlenstoffatomen. Der Verbrauch an Präparat beträgt 8 kg/ha. Als Kontrolle dienen Pflanzen, behandelt mit einem Verdünner ohne Sterilisationsmittel. Die Prüfergebnisse sind in der Tabelle 12 dargestellt. […] Periode der Organogenese erhalten.
# [5] = system: diploidem Roggen Sorte Voskhod 2; experiment: Field test of pollen sterilisation, diploid rye Voskhod 2; format: in vivo; settings: 1% aqueous emulsion, 10 kg/ha; for Prozentsatz der Sterilität / Anzahl von Körnern der Ähre bei freier Bestäubung / Anzahl von Körnern der Ähre im Isolator: period V of organogenesis; for Anzahl von Körnern der Ähre bei freier Bestäubung: free pollination; for Anzahl von Körnern der Ähre im Isolator: isolated ears; for Prozentsatz des Ansetzens von Körnern bei freier Bestäubung: period V, non-isolated control ears = 100%
# [6] = system: Winterweizens Sorte Mir.onovskaya 808; experiment: Field test of pollen sterilisation (gametocidal activity), winter wheat Mironovskaya 808; format: in vivo, Winterweizen; settings: 2% aqueous emulsion, 20 kg/ha; for Prozentsatz der Sterilität / Anzahl von Körnern der Ähre bei freier Bestäubung / Anzahl von Körnern der Ähre im Isolator: period V of organogenesis; for Anzahl von Körnern der Ähre bei freier Bestäubung: free pollination; for Anzahl von Körnern der Ähre im Isolator: isolated ears; for Prozentsatz des Ansetzens von Körnern bei freier Bestäubung: period V, non-isolated control ears = 100%
# Description: Als Emulgierungsmittel wird 0,1 Masse% Kalziumalkylbenzolsulfonat mit 12 bis 14 Kohlenstoffatomen hinzugefügt. Als Adjuvans fährt man in die Emulsion 0,01 Masse% Dimethylsulfoxid ein. Der Verbrauch an Präparat beträgt 20 kg/ha. Als Kontrolle dienen Pflanzen, behandelt mit einem Verdünner ohne Sterilisationsmittel.
# [7] = system: Sommerweizens Sorte Moskovskaya 35; experiment: Field test of pollen sterilisation, spring wheat Moskovskaya 35; format: in vivo, Sommerweizen; settings: 1% aqueous emulsion, 10 kg/ha; for Prozentsatz der Sterilität / Anzahl von Körnern der Ähre bei freier Bestäubung / Anzahl von Körnern der Ähre im Isolator: period V of organogenesis; for Anzahl von Körnern der Ähre bei freier Bestäubung: free pollination; for Anzahl von Körnern der Ähre im Isolator: isolated ears; for Prozentsatz des Ansetzens von Körnern bei freier Bestäubung: period V, non-isolated control ears = 100%
# [8] = Toxicity test in animals (LD50); settings: in vivo; animal test, per kg animal weight; species and route not given
# Description: Alle erfindungsgemässen N-substituierten Maleaminsäuren, welche als Sterilisationsmittel zur Verwendung kommen, waren auf die Toxizität im Tierversuch geprüft. Die Prüfergebnisse haben ergeben, dass die angegebenen Verbindungen von schwacher oder mittlerer Toxizität sind.
# [9] = system: Sommerweizens Sorte Botanicheskaya 4; experiment: Field test of pollen sterilisation, spring wheat Botanicheskaya 4; format: in vivo, Sommerweizen; settings: 1% aqueous emulsion, 6 kg/ha; for Prozentsatz der Sterilität / Anzahl von Körnern der Ähre bei freier Bestäubung / Anzahl von Körnern der Ähre im Isolator: period V of organogenesis; for Anzahl von Körnern der Ähre bei freier Bestäubung: free pollination; for Anzahl von Körnern der Ähre im Isolator: isolated ears; for Prozentsatz des Ansetzens von Körnern bei freier Bestäubung: period V, non-isolated control ears = 100%
# Description: Pflanzen des Sommerweizens Sorte Botanicheskaya 4 werden in der V. Periode der Organogenese (nach Kupermann) mit einer 1%igen Wässrigen Emulsion von N-(2-Dimethyl-aminoäthyl)-maleaminsäure, N-(3-Dimethylaminopropyl)-maleaminsäure, N-Äthylmaleaminsäure, N-(2-Hydroxyäthyl)-maleaminsäure bzw. N-Karbamoylmaleaminsäure behandelt. Die Emulsion enthält 0,5 Masse% Kalziumalkylbenzolsulfonat mit 12 bis 14 Kohlenstoffatomen und 0,01 Masse% Dimethylsulfoxid als Adjuvans. Der Verbrauch an Präparat beträgt 6 kg/ha. Als Kontrolle dienen Pflanzen, behandelt mit einem Verdünner ohne Sterilisationsmittel.
# [10] = system: Winterweizens Sorte Bezostaya 1; experiment: Field test of pollen sterilisation, winter wheat Bezostaya 1; format: in vivo, Winterweizen; settings: 2% aqueous emulsion, 16 kg/ha; for Prozentsatz der Sterilität / Anzahl von Körnern der Ähre bei freier Bestäubung / Anzahl von Körnern der Ähre im Isolator: period V of organogenesis; for Anzahl von Körnern der Ähre bei freier Bestäubung: free pollination; for Anzahl von Körnern der Ähre im Isolator: isolated ears; for Prozentsatz des Ansetzens von Körnern bei breier Bestäubung: period V, non-isolated control ears = 100%
# Description: Pflanzen des Winterweizens Sorte Bezostaya 1 werden in der V. Periode der Organogenese durch Zerstäubung einer 2%igen wässrigen Emulsion von N-(2-Dimethylaminoäthyl)-maleaminsäure, N-(3-Dimethylaminopropyl)-maleaminsäure, N-Äthylmaleaminsäure, N-(2-Hydroxyäthyl)-maleaminsäure, N-Karbamoylmaleaminsäure mit Hilfe deiner Rückspritze behandelt. Die Emulsion enthält 0,1 Masse% Kalziumalkylbenzolsulfonat mit 12 bis 14 Kohlenstoffatomen. Als Adjuvans führt man in die Emulsion 0,01 Masse% Tetrahydrofuran ein.
# Der Verbrauch an Präparat beträgt 16 kg/ha. Als Kontrolle dienen Pflanzen, behandelt mit einem Verdünner ohne Sterilisationsmitteln.
# [11] = system: Hirse Sorte K-9693 Kormovoe 1; experiment: Field test of pollen sterilisation, millet K-9693 Kormovoe 1; format: in vivo; settings: 1% aqueous emulsion, 6 kg/ha; for Prozentsatz der Sterilität / Anzahl von Körnern der Rispe bei freier Bestäubung / Anzahl von Körnern der Rispe im Isolator: period V of organogenesis; for Anzahl von Körnern der Rispe bei freier Bestäubung: free pollination; for Anzahl von Körnern der Rispe im Isolator: isolated panicles; for Prozentsatz des Ansetzens von Körnern bei freier Bestäubung: period V, non-isolated control = 100%
# Description: as §1, §2, §3, §4, §5
# Pflanzen der Hirse Sorte K-9693 Kormovoe 1 werden in der V. Periode der Organogenese (nach Kupermann) mit einer 1%igen wässrigen Emulsion von N-(2-Dimethylaminoäthyl) maleaminsäure, N-(3-Dimethylaminopropyl)maleaminsäure, N-Äthylmaleaminsäure, N-Karbamoylmaleaminsäure behandelt. Die Emulsion enthält 0,01 Masse% Dimethylformamid und 0,1 Masse% Kalziumalkylbenzolsulfonat mit 12 bis 14 Kohlenstoffatomen.
# Der Verbrauch an Präparat beträgt 6 kg/ha. Als Kontrolle dienen Pflanzen, behandelt mit einem Verdünner ohne Sterilisationsmittel. Die Prüfergebnisse sind in der Tabelle13 dargestellt. […] Periode der Organogenese erhalten.
smiles,measurement,setting,value
"O=C(O)/C=C\C(=O)NCCO [Beispiel 4, N-(2-Hydroxyäthyl)-maleaminsäure]",Prozentsatz der Sterilität,[1],"99,8%"
same,Anzahl von Körnern der Ähre bei freier Bestäubung,[1],"50,1"
same,Anzahl von Körnern der Ähre im Isolator,[1],"0,1"
same,Prozentsatz des Ansetzens von Körnern bei freier Bestäubung,[1],"88,2%"
same,Prozentsatz der Sterilität,[2],"99,6%"
same,Anzahl von Körnern der Ähre bei freier Bestäubung,[2],"51,6"
same,Anzahl von Körnern der Ähre im Isolator,[2],"0,2"
same,Prozentsatz des Ansetzens von Körnern bei freier Bestäubung,[2],"94,2%"
same,Prozentsatz der Sterilität,[3],"99,3%"
same,Anzahl von Körnern der Ähre bei freier Bestäubung,[3],"53,2"
same,Anzahl von Körnern der Ähre im Isolator,[3],"0,3"
same,Prozentsatz des Ansetzens von Körnern bei freier Bestäubung,"[3]; period V, non-isolated control ears = 100%","94,7%"
same,Prozentsatz der Sterilität,[4],"100,0%"
same,Anzahl von Körnern der Rispe bei freier Bestäubung,[4],"215,0"
same,Anzahl von Körnern der Rispe im Isolator,[4],"0,0"
same,Prozentsatz des Ansetzens von Körnern bei freier Bestäubung,[4],"94,6%"
same,Prozentsatz der Sterilität,[5],"98,4%"
same,Anzahl von Körnern der Ähre bei freier Bestäubung,[5],"52,2"
same,Anzahl von Körnern der Ähre im Isolator,[5],"0,8"
same,Prozentsatz des Ansetzens von Körnern bei freier Bestäubung,[5],"94,6%"
same,Prozentsatz der Sterilität,[6],"99,3%"
same,Anzahl von Körnern der Ähre bei freier Bestäubung,[6],"39,8"
same,Anzahl von Körnern der Ähre im Isolator,[6],"0,3"
same,Prozentsatz des Ansetzens von Körnern bei freier Bestäubung,[6],"93,4%"
same,Prozentsatz der Sterilität,[7],"100,0%"
same,Anzahl von Körnern der Ähre bei freier Bestäubung,[7],"27,0"
same,Anzahl von Körnern der Ähre im Isolator,[7],"0,0"
same,Prozentsatz des Ansetzens von Körnern bei freier Bestäubung,[7],"98,2%"
same,LD50,[8],1500 mg/kg
same,Prozentsatz der Sterilität,[9],"100,0%"
same,Anzahl von Körnern der Ähre bei freier Bestäubung,[9],"28,7"
same,Anzahl von Körnern der Ähre im Isolator,[9],"0,0"
same,Prozentsatz des Ansetzens von Körnern bei freier Bestäubung,[9],"95,3%"
same,Prozentsatz der Sterilität,[10],"100,0%"
same,Anzahl von Körnern der Ähre bei freier Bestäubung,[10],"37,1"
same,Anzahl von Körnern der Ähre im Isolator,[10],"0,0"
same,Prozentsatz des Ansetzens von Körnern bei breier Bestäubung,[10],"86,5%"
"NC(=O)NC(=O)/C=C\C(=O)O [Beispiel 58, N-Karbamoylmaleaminsäure]",Prozentsatz der Sterilität,[11],"100,0%"
same,Anzahl von Körnern der Rispe bei freier Bestäubung,[11],"133,6"
same,Anzahl von Körnern der Rispe im Isolator,[11],"0,0"
same,Prozentsatz des Ansetzens von Körnern bei freier Bestäubung,[11],"91,1%"
"CN(C)CCNC(=O)/C=C\C(=O)O [Beispiel 54, N-(2-Dimethylaminoäthyl) maleaminsäure]",Prozentsatz der Sterilität,[11],"100,0%"
same,Anzahl von Körnern der Rispe bei freier Bestäubung,[11],"124,2"
same,Anzahl von Körnern der Rispe im Isolator,[11],"0,0"
same,Prozentsatz des Ansetzens von Körnern bei freier Bestäubung,[11],"84,7%"
"CCNC(=O)/C=C\C(=O)O [Beispiel 56, N-Äthylmaleaminsäure]",Prozentsatz der Sterilität,[11],"100,0%"
same,Anzahl von Körnern der Rispe bei freier Bestäubung,[11],"114,7"
same,Anzahl von Körnern der Rispe im Isolator,[11],"0,0"
same,Prozentsatz des Ansetzens von Körnern bei freier Bestäubung,[11],"78,2%"
"CCNC(=O)/C=C\C(=O)O [Beispiel 3, N-Äthylmaleaminsäure]",Prozentsatz der Sterilität,[1],"99,4%"
same,Anzahl von Körnern der Ähre bei freier Bestäubung,[1],"49,8"
same,Anzahl von Körnern der Ähre im Isolator,[1],"0,3"
same,Prozentsatz des Ansetzens von Körnern bei freier Bestäubung,[1],"87,7%"
same,Prozentsatz der Sterilität,[2],"99,4%"
same,Anzahl von Körnern der Ähre bei freier Bestäubung,[2],"52,3"
same,Anzahl von Körnern der Ähre im Isolator,[2],"0,3"
same,Prozentsatz des Ansetzens von Körnern bei freier Bestäubung,[2],"95,4%"
same,Prozentsatz der Sterilität,[3],"100,0%"
same,Anzahl von Körnern der Ähre bei freier Bestäubung,[3],"50,1"
same,Anzahl von Körnern der Ähre im Isolator,[3],"0,0"
same,Prozentsatz der Sterilität,[4],"100,0%"
same,Anzahl von Körnern der Rispe bei freier Bestäubung,[4],"200,8"
same,Anzahl von Körnern der Rispe im Isolator,[4],"0,0"
same,Prozentsatz des Ansetzens von Körnern bei freier Bestäubung,[4],"88,3%"
same,Prozentsatz der Sterilität,[5],"100,0%"
same,Anzahl von Körnern der Ähre bei freier Bestäubung,[5],"53,0"
same,Anzahl von Körnern der Ähre im Isolator,[5],"0,0"
same,Prozentsatz des Ansetzens von Körnern bei freier Bestäubung,[5],"96,0%"
same,Prozentsatz der Sterilität,[6],"99,5%"
same,Anzahl von Körnern der Ähre bei freier Bestäubung,[6],"40,7"
same,Anzahl von Körnern der Ähre im Isolator,[6],"0,2"
same,Prozentsatz des Ansetzens von Körnern bei freier Bestäubung,[6],"95,5%"
same,Prozentsatz der Sterilität,[7],"98,5%"
same,Anzahl von Körnern der Ähre bei freier Bestäubung,[7],"26,7"
same,Anzahl von Körnern der Ähre im Isolator,[7],"0,4"
same,Prozentsatz des Ansetzens von Körnern bei freier Bestäubung,[7],"97,1%"
same,LD50,[8],2000 mg/kg
same,Prozentsatz der Sterilität,[9],"100,0%"
same,Anzahl von Körnern der Ähre bei freier Bestäubung,[9],"28,2"
same,Anzahl von Körnern der Ähre im Isolator,[9],"0,0"
same,Prozentsatz des Ansetzens von Körnern bei freier Bestäubung,[9],"93,7%"
same,Prozentsatz der Sterilität,[10],"99,4%"
same,Anzahl von Körnern der Ähre bei freier Bestäubung,[10],"42,1"
same,Anzahl von Körnern der Ähre im Isolator,[10],"0,2"
same,Prozentsatz des Ansetzens von Körnern bei breier Bestäubung,[10],"98,1%"
"CN(C)CCCNC(=O)/C=C\C(=O)O [Beispiel 55, N-(3-Dimethylaminopropyl)maleaminsäure]",Prozentsatz der Sterilität,[11],"100,0%"
same,Anzahl von Körnern der Rispe bei freier Bestäubung,[11],"100,8"
same,Anzahl von Körnern der Rispe im Isolator,[11],"0,0"
same,Prozentsatz des Ansetzens von Körnern bei freier Bestäubung,[11],"68,7%"
"O=C(O)/C=C\C(=O)NCCO [Beispiel 57, N-(2-Hydroxyäthyl)maleaminsäure]",Prozentsatz der Sterilität,[11],"100,0%"
same,Anzahl von Körnern der Rispe bei freier Bestäubung,[11],"127,2"
same,Anzahl von Körnern der Rispe im Isolator,[11],"0,0"
same,Prozentsatz des Ansetzens von Körnern bei freier Bestäubung,[11],"86,7%"
